Results taken from ChEMBL document CHEMBL1157742, “Oxepinochromenones, furochromenone, and their putative precursors from the endolichenic fungus Coniochaeta sp” (J Nat Prod, 2010).
pIC50: −log10 of the molar value.

Tests used:
Assay type in all cases: functional, cell-based
HeLa = test: Cytotoxicity against human HeLa cells after 48 hrs by MTT assay
A549 = test: Cytotoxicity against human A549 cells after 48 hrs by MTT assay; conditions: A549, 48 h
HepG2 = test: Cytotoxicity against human HepG2 cells after 48 hrs by MTT assay; conditions: HepG2, 48 h
MDA-MB-231 = test: Cytotoxicity against human MDA-MB-231 cells after 48 hrs by MTT assay; conditions: MDA-MB-231, 48 h

Row | Compound | pIC50 (HeLa) | pIC50 (A549) | pIC50 (HepG2) | pIC50 (MDA-MB-231)
1 | O=c1[nH]cc(F)c(=O)[nH]1 [FLUOROURACIL] | 5.00 | – | – | –
2 | COC(=O)[C@]12Oc3cc(C)cc(O)c3C(=O)C1=C(O)OC=C[C@H]2O [CONIOXEPINOL D] | < 3.92 | 4.39 | < 3.92 | 4.38
3 | COC(=O)[C@@]1(O)c2c(oc3cc(C)cc(O)c3c2=O)OC=C[C@@H]1O [CONIOXEPINOL C] | < 3.92 | 4.08 | < 3.92 | 3.95
4 | COC(=O)[C@@H]1c2c(oc3cc(C)cc(O)c3c2=O)OC=C[C@@H]1O [CONIOXEPINOL A] | 3.98 | < 3.92 | < 3.92 | < 3.92
5 | COC(=O)[C@@]1(O)c2c(oc3cc(C)cc(O)c3c2=O)O[C@@H]1CCO [CONIOFUROL A] | < 3.92 | < 3.92 | < 3.92 | < 3.92
6 | COC(=O)[C@@H]1c2c(oc3cc(CO)cc(O)c3c2=O)OC=C[C@@H]1O [CONIOXEPINOL B] | 4.44 | < 3.92 | < 3.92 | < 3.92
